Reference: PMC10017027, “Design and Synthesis of Novel HIV-1 NNRTIs with Bicyclic Cores and with Improved Physicochemical Properties” (Journal of Medicinal Chemistry, 2023)
Converted amounts (≈) assume the structure as drawn. Where two headings read alike, the source gives them in different places.

Tests used:
[1] = Predicted clearance in human liver microsomes; assay type: in vitro ADME; details: pH 7.4, 1 μM compound, read-out: HLM CLint, pred (converted)
Description: Next, microsome stability was profiled in purified human liver microsomes (HLM).
Metabolic stability of compounds was assessed using HLM (Corning cat. 457117).[52] In this assay, 10 nL compounds at a concentration of 1 mM in 100% DMSO are dispensed into 384-well polypropylene plates using the Echo 550 acoustic liquid dispenser (Labcyte). Each plate contains 384 wells with a single test compound in each well.
A solution of HLM at 2 mg/mL in 100 mM K2HPO4/KH2PO4 pH 7.4 with 0.0225 mg/mL Alamethicin from Trichoderma viride (Sigma-Aldrich cat. A4665-10MG) was incubated on ice for 15 min. 5 μL of this solution was added to individual wells following 15 min incubation at room temperature; and supplemented with 5 μL NADPH Regenerating Solution of cofactors (Corning Gentest UGT Reaction Mix solutions A and B, cat. 451200 and 451220) containing 100 mM K2HPO4/KH2PO4 pH 7.4, 2.6 mM NADP^+, 6.6 mM glucose-6-phosphate, 6.6 mM MgCl2, 0.8 U/mL glucose-6-phosphate dehydrogenase, 0.1 mM sodium citrate, and 6.8 mM uridine diphosphate-glucuronic acid. The final concentration of analyte compounds at the beginning of the reactions was 1 μM. The reactions were incubated at 37 °C, and time points of 0, 5, 15, 30, 40, 50, 60, and 70 min were collected for further analysis. Background data were collected using reactions without analyte compounds.
Upon collection of the reaction time points, samples were quenched at the set time points with 30 μL of a solution of 72% acetonitrile, 8% methanol, 0.1% formic acid, 19.9% water, and labetalol as an internal standard (IS) at a concentration of 650 nM. Reaction plates were span in a centrifuge at a speed of 4000 rcf for 30 min and 4 °C, following a dilution of the 10 μL quenched reaction into 40 μL de-ionized water, yielding assay plates.
Samples were analyzed by a solid-phase extraction coupled with a quadrupole time-of-flight mass spectrometer, using an Agilent QToF 6530 RapidFire 360 system with C4 type A solid state cartridges. Analysis was performed in either positive or negative ionization modes. Mobile phases contained 0.1% formic acid in water for loading analytes onto solid state extraction cartridges, and 0.1% formic acid in acetonitrile for elution into the mass spectrometer in positive ionization mode, or 0.1% acetic acid in water for loading and 0.1% acetic acid in acetonitrile for extraction in negative ionization mode. Peak-area ratios of integrated counts for individual compounds to IS were plotted as a semi-logarithmic chart of log versus time. Initial, linear portion of decay was fitted to a linear regression equation to derive the half-time of a compound decay.
Pharmacological parameters for an analyte compound metabolism were calculated using the equations described in Table S2.
Table S2. Pharmacological parameters for an analyte compound metabolism were
calculated using the following equations:
Intrinsic Clearance (in Cl = ln 2
int, in vitro T1/2 ∗ Conc
Intrinsic Clearance Cl = Clint, in vitro ∗ Liver Mass ∗ Yield
Predicted Hepatic Cl = Clint ∗ QH
QH (Hepatic Blood Flow) = 1.3 L/hr/kg

[2] = Solubility assessment, shake-flask method; assay type: physicochemical; details: for solubility: shake-flask; for HCl sol / PBS sol: supplement CSV
Description: Compound solubility was measured at Analiza (Cleveland, OH) by the standard shake-flask method at pH 1.2 and 7.4 and quantitated by HPLC-UV.

[3] = test system: HIV-1 HXB2 Y181C variant; test: MT-4 antiviral cytopathic effect assay, HXB2-Y181C; assay type: cell-based; details: for EC50: Human immunodeficiency virus 1, HXB2, read-out: EC50 Y181C
Description: (§1) The prepared compounds were tested for their anti-HIV-1 activity (Table 1). A viral cytopathic effect assay in MT-4 cells with HIV-1 IIIB virus was used to determine compound potency (EC50, 50% cell viability) in protecting virus induced cell killing. Compound cytotoxicity was assessed in MT-4 cells in the absence of virus (CC50, 50% cytotoxicity). […] ETV contains bromo and amino substitutions on the DAPY core. […] Likely, with the smaller cyano arm I in 1, 3, and 5, the cores could be further elaborated to optimize the compound position in the pocket and to improve potency.
(§2) Compounds were tested in a high-throughput 384-well assay format for their ability to inhibit the virus replication-induced cytopathic effect in MT-4 cell cultures acutely infected with HIV-1 (IIIB strain), HXB2, HXB2-K103N, and HXB2-Y181C. Compounds were serially diluted (1:3) in DMSO on 384-well polypropylene plates and further diluted 200-fold into complete RPMI media (10% FBS, 1% P/S) using Biotek Micro Flow and an Agilent ECHO acoustic dispenser. Each plate contained up to eight test compounds, with negative (no drug control) and 5 μM AZT positive controls. MT-4 cells were further diluted in complete RPMI media and added to each plate using a Micro-Flo dispenser. After five days of incubation in a humidified and temperature-controlled incubator (37 °C), Cell Titer Glo (Promega) was added to the assay plates to quantify the amount of […]. EC50 and CC50 values were defined as the compound concentration that causes a 50% decrease in luminescence signal and were calculated using a sigmoidal dose-response model to generate curve fits.

[4] = test system: E138K; details: cell culture; cited from earlier work
[5] = test system: HIV-1 HXB2 K103N variant; test: MT-4 antiviral cytopathic effect assay, HXB2-K103N; assay type: cell-based; details: for EC50: Human immunodeficiency virus 1, HXB2, read-out: EC50 K103N
Description: as §1, §2

[6] = in vitro; assay type: cell-based; details: human
Description: as §1, §2

[7] = MDCK permeability assay (A to B); assay type: in vitro ADME, Canine; details: dog, MDCK
Excerpt: (§3) Compounds were further tested in a Madin–Darby Canine Kidney (MDCK) assay to evaluate their potential for oral absorption. […] Additionally, there was no trend for better permeability when comparing arm I versus arm II when matched with the same core. The size of the B ring had the greatest influence on Papp with the trend being five-membered > six-membered > seven-membered rings (Table 1).
(§4) cMdr1-KO cells were maintained in Dulbecco’s modified Eagle’s medium (DMEM) with sodium pyruvate and GlutaMax, supplemented with 1% Pen/Strep and 10% fetal bovine serum in an incubator set at 37 °C, 90% humidity, and 5% CO2. MDCKII- cMdr1-KO cells were grown to confluence over 3 days on 96-well PET plates with 1 μm pore size, polyester membrane (Corning 3392). Experiments were run using HBSS donor buffer from Invitrogen containing an additional 10 mM HEPES, 15 mM glucose, and 0.1% BSA adjusted to pH 7.4. The receiver well had HBSS buffer supplemented with 1% BSA, 10 mM HEPES, 15 mM glucose, and the pH was adjusted to 7.4. TEER values were read to test membrane integrity at the beginning of the assay. The experiment was started by the addition of dosing solutions containing test compounds. Samples were taken from the donor compartment at 0/120 min and from the receiver compartment at 120 min. Each compound was tested in two separate replicate wells. All samples were immediately collected in a 72:8:20 MeCN/MeOH:H2O mix to precipitate protein and stabilize the test compounds. Cells were dosed on the apical side to determine forward (A to B) permeability. To test for non-specific binding and compound instability, the total amount of drug was quantified at the end of the experiment and compared to the material present in the original dosing solution as a percentage of recovery. Samples were analyzed by RF-QToF.

[8] = test system: MDCKII-cMdr1-KO cells; test: MDCK permeability assay (A to B); assay type: in vitro ADME, Canine; details: in words
Excerpt: as §3, §4

[9] = test system: HIV-1 (IIIB strain); test: MT-4 antiviral cytopathic effect assay, HIV-1 IIIB; assay type: cell-based; details: HIV-1 IIIB, WT
Description: (§5) The prepared compounds were tested for their anti-HIV-1 activity (Table 1). A viral cytopathic effect assay in MT-4 cells with HIV-1 IIIB virus was used to determine compound potency (EC50, 50% cell viability) in protecting virus induced cell killing. Compound cytotoxicity was assessed in MT-4 cells in the absence of virus (CC50, 50% cytotoxicity).
as §2

[10] = test system: HIV-1 HXB2; test: MT-4 antiviral cytopathic effect assay, HXB2 wild-type virus; assay type: cell-based
Description: as §5, §2

[11] = Solubility assessment, shake-flask method; assay type: physicochemical; details: compared to the other compounds, in words
[12] = HCl, pH 1.2, read-out: solubility HCl
[13] = phosphate-buffered saline, pH 7.4, read-out: solubility PBS
[14] = fold change: ratio of potency against HXB2 Y181C and parental HXB2
[15] = supplement CSV, fold change vs HXB2
[16] = fold change: ratio of potency against HXB2 K103N and parental HXB2
[17] = apparent permeability coefficient, A to B, pH 7.4

Cc1cc(C#N)cc(C)c1Oc1nc(Nc2ccc(C#N)cc2)nc(N)c1Br [ETV, etravirine, reference compound]
CLint scaled at 1.167 h, 1 µM [1]: 0.25 L/h/kg
solubility [2, 12]: < 1 µM
solubility [2, 13]: < 1 µM
HCl sol [2]: <1 µM
PBS sol [2]: <1 µM
EC50 [3]: 11.1 nM
Y181C (FC) [3, 14]: 4.8
Y181C (FC) [3, 15]: 4.8
resistance conferred by E138K [4]: 2–3 fold
EC50 [5]: 2.3 nM
K103N (FC) [5, 16]: 0.9
K103N (FC) [5, 15]: 0.9
CC50 at 120 h [6]: 7300 nM
Papp A→B at 120 min ([7]; supplement CSV): 38 nm/s
Papp A→B at 120 min [7, 17]: 38 nm/s
permeability (Papp) in the MDCK assay [8]: moderate
EC50 ([9]; Human immunodeficiency virus 1, MT4, read-out: EC50 MT4, protects 50% of MT-4 cells against HIV-1-induced cell killing): 2.4 nM
EC50 ([10]; Human immunodeficiency virus 1, HXB2, MT4, read-out: EC50 HXB2): 2.5 nM

Cc1cc(/C=C/C#N)cc(C)c1N1CC(=O)Nc2cnc(Nc3ccc(C#N)cc3)nc21 [Compound 4, 4-[(8-{4-[(1E)-2-Cyanoeth-1-en-1-yl]-2,6-dimethylphenyl}-6-oxo-5,6,7,8-tetrahydropteridin-2-yl)amino]benzonitrile]
CLint scaled at 1.167 h, 1 µM [1]: 0.98 L/h/kg
solubility [2, 12]: 6.5 µM (≈ 2.74 µg/mL)
solubility [2, 13]: 1.8 µM (≈ 0.759 µg/mL)
HCl sol [2]: 6.5 µM
PBS sol [2]: 1.8 µM
EC50 [3]: 4.9 nM
Y181C (FC) [3, 14]: 2.0
Y181C (FC) [3, 15]: 2.0
EC50 [5]: 2.8 nM
K103N (FC) [5, 16]: 1.2
K103N (FC) [5, 15]: 1.2
CC50 at 120 h [6]: 42400 nM
solubility at pH 2 [11]: markedly reduced
Papp A→B at 120 min ([7]; supplement CSV): 42 nm/s
Papp A→B at 120 min [7, 17]: 42 nm/s
EC50 ([9]; Human immunodeficiency virus 1, IIIB, MT4, protects 50% of MT-4 cells against HIV-1-induced cell killing, read-out: EC50 MT4): 2.6 to 3 nM
EC50 ([9]; protects 50% of MT-4 cells against HIV-1-induced cell killing, read-out: EC50 MT4): 2.7 nM
EC50 ([10]; Human immunodeficiency virus 1, MT4, HIV-1 HXB2 wild-type, MT-4 cells, read-out: EC50 HXB2): 2.4 nM
